For experiment [1], the system named is EGFR Del19/T790M/C797S (H1975-clone #28). Description: EGFR degradation HTRF assay, H1975-clone #28 DTC cells. The class given is cell-based. The settings on record: H1975 # 28 DTC cells; for DC50: EGFR degradation, IC50 (DC50) from curve fit, read-out: DC50(nM) H1975 # 28 DTC; for Dmax (%) H1975 # 28 DTC: maximum percentage of inhibition (degradation). The procedure, abridged:
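H1975 clones stably overexpressing mutant EGFR, with endogenous EGFR knocked out by sgRNA and homozygosity confirmed by sequencing, were treated 16h at 37° C. with compounds in 0.2% DMSO (top final 10 uM, 5-fold, 8 doses). Lysates were read by HTRF (665/620 nm); DC50 and Dmax came from fitting % degradation versus DMSO control.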
In general terms: TR-FRET usually uses a lanthanide donor and a delayed reading to cut background.

Experiment [2] has as its target T1, EGFR L858R/T790M/C797S (BaF3-LTC cells) (Homo sapiens, UniProt P00533, C797S/L858R/T790M).
T1 construct: expressed in transfected cells; host or cells: BaF3
Briefly: EGFR degradation HTRF assay, BaF3-LTC cells. The class given is cell-based. The following applies: BaF3-LTC cells; for DC50: EGFR degradation, IC50 (DC50) from curve fit, read-out: DC50(nM) BaF3-LTC; for Dmax: maximum percentage of inhibition (degradation), read-out: Dmax (%) BaF3-LTC. The essentials: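 EGFR remaining after a 16 h, 37 °C exposure (8 doses, 5-fold steps from 10 uM final, 0.2% DMSO) was quantified by HTRF antibodies in cell lysate. Percent inhibition relative to DMSO control was fitted by four-parameter logistic to give DC50; Dmax denotes maximal degradation.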

The text below walks through data of patent US20230265116A1, “DEGRADATION OF (EGFR) BY CONJUGATION OF EGFR INHIBITORS WITH E3 LIGASE LIGAND AND METHODS OF USE” (BEIGENE, LTD., priority 2020, published 2023).

T1 sequence (P00533 25-1210 T790M/C797S/L858R): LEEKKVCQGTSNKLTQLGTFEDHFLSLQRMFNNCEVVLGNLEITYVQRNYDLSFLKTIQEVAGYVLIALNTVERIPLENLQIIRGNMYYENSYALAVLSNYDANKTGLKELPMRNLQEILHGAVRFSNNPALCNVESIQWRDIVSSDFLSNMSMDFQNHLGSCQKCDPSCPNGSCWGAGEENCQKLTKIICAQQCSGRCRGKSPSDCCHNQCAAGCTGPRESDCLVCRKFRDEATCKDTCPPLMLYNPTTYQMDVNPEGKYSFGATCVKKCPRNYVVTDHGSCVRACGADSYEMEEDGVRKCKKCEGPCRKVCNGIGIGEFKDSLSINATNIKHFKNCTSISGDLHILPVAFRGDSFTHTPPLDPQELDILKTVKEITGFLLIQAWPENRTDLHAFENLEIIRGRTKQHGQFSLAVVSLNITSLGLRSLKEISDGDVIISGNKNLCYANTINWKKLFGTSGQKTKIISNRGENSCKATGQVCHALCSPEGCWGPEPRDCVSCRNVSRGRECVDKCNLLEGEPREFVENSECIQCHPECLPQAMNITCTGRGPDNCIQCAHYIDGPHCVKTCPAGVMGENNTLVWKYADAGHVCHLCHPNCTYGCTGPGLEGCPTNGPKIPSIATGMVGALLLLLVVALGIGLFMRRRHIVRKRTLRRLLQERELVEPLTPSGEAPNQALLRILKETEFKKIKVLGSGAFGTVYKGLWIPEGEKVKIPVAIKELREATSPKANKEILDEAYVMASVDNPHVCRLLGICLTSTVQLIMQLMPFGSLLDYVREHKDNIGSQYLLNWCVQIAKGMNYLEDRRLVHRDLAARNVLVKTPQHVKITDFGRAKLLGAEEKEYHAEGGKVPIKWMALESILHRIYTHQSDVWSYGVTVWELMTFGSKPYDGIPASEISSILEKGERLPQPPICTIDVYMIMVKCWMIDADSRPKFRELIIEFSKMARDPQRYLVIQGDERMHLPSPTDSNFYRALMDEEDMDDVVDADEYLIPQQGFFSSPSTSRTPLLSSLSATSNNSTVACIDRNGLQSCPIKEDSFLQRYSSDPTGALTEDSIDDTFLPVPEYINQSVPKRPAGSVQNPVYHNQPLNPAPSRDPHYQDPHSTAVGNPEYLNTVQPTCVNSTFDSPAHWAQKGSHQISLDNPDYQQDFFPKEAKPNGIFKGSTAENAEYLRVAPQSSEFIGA

Take `CCc1cc(Nc2ncc(Br)c(Nc3ccc4nc(C)ccc4c3P(C)(C)=O)n2)c(OC)cc1N1CCC(N2CCN(C(=O)[C@H]3CC[C@@H](Oc4cc(F)c(C5CCC(=O)NC5=O)c(F)c4)CC3)CC2)CC1` (stereo partly shown) [Example 681, 3-(4-(((1s,4s)-4-(4-(1-(4-((5-bromo-4-((5-(dimethylphosphoryl)-2-methylquinolin-6-yl)amino)pyrimidin-2-yl)amino)-2-ethyl-5-methoxyphenyl)piperidin-4-yl)piperazine-1-carbonyl)cyclohexyl)oxy)-2,6-difluorophenyl)piperidine-2,6-dione]: in experiment [1], the 50% degradation concentration (DC50) is 1.37 nM and the “Dmax (%) H1975 # 28 DTC” value came to 77.05%. Besides, in experiment [2], the DC50 came to 4.65 nM and the Dmax was found to be 96%.

In the case of `CCc1cc(Nc2ncc(Br)c(Nc3ccc4nc(C#N)ccc4c3P(C)(C)=O)n2)c(OC)cc1N1CCC(N2CCN(CCc3cc(F)c([C@H]4CCC(=O)NC4=O)c(F)c3)CC2)CC1` [Example 682, (R)-6-((5-bromo-2-((4-(4-(4-(4-(2,6-dioxopiperidin-3-yl)-3,5-difluorophenethyl)piperazin-1-yl)piperidin-1-yl)-5-ethyl-2-methoxyphenyl)amino)pyrimidin-4-yl)amino)-5-(dimethylphosphoryl)quinoline-2-carbonitrile], in experiment [1], the DC50 came out at 0.91 nM and the “Dmax (%) H1975 # 28 DTC” value was found to be 87.08%. In addition, in experiment [2], the DC50 was 6.79 nM and the greatest degradation seen (Dmax) is 95%.

As to `CCc1cc(Nc2ncc(Br)c(Nc3ccc4nc(C)ccc4c3P(C)(C)=O)n2)c(OC)cc1N1CCC(N2CCN(CCOc3cccc4c3n(C)c(=O)n4C3CCC(=O)NC3=O)CC2)CC1` (stereo not shown) [Example 683, 3-(4-(2-(4-(1-(4-((5-bromo-4-((5-(dimethylphosphoryl)-2-methylquinolin-6-yl)amino)pyrimidin-2-yl)amino)-2-ethyl-5-methoxyphenyl)piperidin-4-yl)piperazin-1-yl)ethoxy)-3-methyl-2-oxo-2,3-dihydro-1H-benzo[d]imidazol-1-yl)piperidine-2,6-dione], in experiment [1], the DC50 is 0.595 nM and the “Dmax (%) H1975 # 28 DTC” value amounted to 75.35%. Moreover, in experiment [2], the DC50 stood at 1.11 nM and the Dmax was 95.9%.

In the case of `CCc1cc(Nc2ncc(Br)c(Nc3ccc4c(C)nccc4c3P(C)(C)=O)n2)c(OC)cc1N1CCC(N2CCN(CCc3cc(F)c([C@H]4CCC(=O)NC4=O)c(F)c3)CC2)CC1` [Example 684, (R)-3-(4-(2-(4-(1-(4-((5-bromo-4-((5-(dimethylphosphoryl)-1-methylisoquinolin-6-yl)amino)pyrimidin-2-yl)amino)-2-ethyl-5-methoxyphenyl)piperidin-4-yl)piperazin-1-yl)ethyl)-2,6-difluorophenyl)piperidine-2,6-dione], in experiment [1], the DC50 came to 1.06 nM and the “Dmax (%) H1975 # 28 DTC” value is reported as 88.35%. Further, in experiment [2], the DC50 stood at 12.4 nM and the maximal degradation (Dmax) was 91.4%.

For `CCc1cc(Nc2ncc(Br)c(Nc3ccc4nc(C)sc4c3P(C)(C)=O)n2)c(OC)cc1N1CCC(N2CCN(C(=O)[C@@H]3CCN(c4cc(F)c([C@H]5CCC(=O)NC5=O)c(F)c4)C3)CC2)CC1` [Example 685, (R)-3-(4-((R)-3-(4-(1-(4-((5-bromo-4-((7-(dimethylphosphoryl)-2-methylbenzo[d]thiazol-6-yl)amino)pyrimidin-2-yl)amino)-2-ethyl-5-methoxyphenyl)piperidin-4-yl)piperazine-1-carbonyl)pyrrolidin-1-yl)-2,6-difluorophenyl)piperidine-2,6-dione], in experiment [1], the DC50 is 0.787 nM and the “Dmax (%) H1975 # 28 DTC” value is reported as 83.23%. For the same compound, in experiment [2], the DC50 was 5.29 nM and the Dmax is 95%.

On to `CCc1cc(Nc2ncc(Br)c(Nc3ccc4c(c3P(C)(C)=O)OCCO4)n2)c(OC)cc1N1CCC(N2CCN(C(=O)[C@@H]3CCN(c4cc(F)c([C@H]5CCC(=O)NC5=O)c(F)c4)C3)CC2)CC1` [Example 686, (R)-3-(4-((R)-3-(4-(1-(4-((5-bromo-4-((5-(dimethylphosphoryl)-2,3-dihydrobenzo[b][1,4]dioxin-6-yl)amino)pyrimidin-2-yl)amino)-2-ethyl-5-methoxyphenyl)piperidin-4-yl)piperazine-1-carbonyl)pyrrolidin-1-yl)-2,6-difluorophenyl)piperidine-2,6-dione], for which, in experiment [1], the DC50 turned out to be 1.76 nM and the “Dmax (%) H1975 # 28 DTC” value turned out to be 88.73%. Moreover, in experiment [2], the DC50 was 4.89 nM and the Dmax stood at 96.6%.

For `COc1cc(N2CCC(N3CC(C(=O)N4CCC(c5cc(F)c(C6CCC(=O)NC6=O)c(F)c5)CC4)C3)CC2)c(C)cc1Nc1ncc(Br)c(Nc2ccc3nc(C)ccc3c2P(C)(C)=O)n1` (stereo not shown) [Example 687, 3-(4-(1-(1-(1-(4-((5-bromo-4-((5-(dimethylphosphoryl)-2-methylquinolin-6-yl)amino)pyrimidin-2-yl)amino)-5-methoxy-2-methylphenyl)piperidin-4-yl)azetidine-3-carbonyl)piperidin-4-yl)-2,6-difluorophenyl)piperidine-2,6-dione], in experiment [1], the DC50 worked out at 1.38 nM and the “Dmax (%) H1975 # 28 DTC” value is 68.75%. For the same compound, in experiment [2], the DC50 worked out at 14.8 nM and the Dmax stood at 93.3%.

On to `CCc1cc(Nc2ncc(C(F)(F)F)c(Nc3ccc4nc(C)ccc4c3P(C)(C)=O)n2)c(OC)cc1N1CCC(N2CCN(CCc3cc(F)c(C4CCC(=O)NC4=O)c(F)c3)CC2)CC1` (stereo not shown) [Example 689, 3-(4-(2-(4-(1-(4-((4-((5-(dimethylphosphoryl)-2-methylquinolin-6-yl)amino)-5-(trifluoromethyl)pyrimidin-2-yl)amino)-2-ethyl-5-methoxyphenyl)piperidin-4-yl)piperazin-1-yl)ethyl)-2,6-difluorophenyl)piperidine-2,6-dione], for which, in experiment [1], the DC50 is 3.03 nM and the “Dmax (%) H1975 # 28 DTC” value was 72.37%. In addition, in experiment [2], the DC50 was determined as 15.4 nM and the Dmax worked out at 85.1%.

With `CCc1cc(Nc2ncc(Br)c(Nc3ccc4nc(COC)ccc4c3P(C)(C)=O)n2)c(OC)cc1N1CCC(N2CCN(CCc3cc(F)c(C4CCC(=O)NC4=O)c(F)c3)CC2)CC1` (stereo not shown) [Example 690, 3-(4-(2-(4-(1-(4-((5-bromo-4-((5-(dimethylphosphoryl)-2-(methoxymethyl)quinolin-6-yl)amino)pyrimidin-2-yl)amino)-2-ethyl-5-methoxyphenyl)piperidin-4-yl)piperazin-1-yl)ethyl)-2,6-difluorophenyl)piperidine-2,6-dione], in experiment [1], the DC50 was 0.689 nM and the “Dmax (%) H1975 # 28 DTC” value stood at 77.81%. In experiment [2], the DC50 was 6.66 nM and the Dmax was 90.6%.

As for `CCc1ccc2c(P(C)(C)=O)c(Nc3nc(Nc4cc(CC)c(N5CCC(N6CCN(C[C@H]7C[C@H](N(C)c8cc(F)c(C9CCC(=O)NC9=O)c(F)c8)C7)CC6)CC5)cc4OC)ncc3Br)ccc2n1` (stereo partly shown) [Example 691, 3-(4-(((1r,3r)-3-((4-(1-(4-((5-bromo-4-((5-(dimethylphosphoryl)-2-ethylquinolin-6-yl)amino)pyrimidin-2-yl)amino)-2-ethyl-5-methoxyphenyl)piperidin-4-yl)piperazin-1-yl)methyl)cyclobutyl)(methyl)amino)-2,6-difluorophenyl)piperidine-2,6-dione], in experiment [1], the DC50 was determined as 3.3 nM and the “Dmax (%) H1975 # 28 DTC” value turned out to be 71.66%. Besides, in experiment [2], the DC50 turned out to be 24.6 nM and the Dmax worked out at 93.4%.

Turning to `CCc1cc(Nc2ncc(Br)c(Nc3ccc4nc(C)ccc4c3P(C)(C)=O)n2)c(OC)cc1N1CCC(N2CCN(CCC3CN(c4cccc5c4CN(C4CCC(=O)NC4=O)C5=O)C3)CC2)CC1` (stereo not shown) [Example 692, 3-(4-(3-(2-(4-(1-(4-((5-bromo-4-((5-(dimethylphosphoryl)-2-methylquinolin-6-yl)amino)pyrimidin-2-yl)amino)-2-ethyl-5-methoxyphenyl)piperidin-4-yl)piperazin-1-yl)ethyl)azetidin-1-yl)-1-oxoisoindolin-2-yl)piperidine-2,6-dione], in experiment [1], the 50% degradation concentration (DC50) was 0.593 nM and the “Dmax (%) H1975 # 28 DTC” value is listed as 73%. Moreover, in experiment [2], the DC50 was found to be 6.68 nM and the Dmax amounted to 91.4%.

As for `CCc1cc(Nc2ncc(Br)c(Nc3ccc4nc(C)ccc4c3P(C)(C)=O)n2)c(OC)cc1N1CCC(N2CCN(CCc3cc(F)c(C4CCC(=O)NC4=O)c(F)c3)[C@@H](C)C2)CC1` (stereo partly drawn) [Example 693, 3-(4-(2-((S)-4-(1-(4-((5-bromo-4-((5-(dimethylphosphoryl)-2-methylquinolin-6-yl)amino)pyrimidin-2-yl)amino)-2-ethyl-5-methoxyphenyl)piperidin-4-yl)-2-methylpiperazin-1-yl)ethyl)-2,6-difluorophenyl)piperidine-2,6-dione], in experiment [1], the DC50 came out at 0.812 nM and the “Dmax (%) H1975 # 28 DTC” value came out at 66.27%. For the same compound, in experiment [2], the DC50 was determined as 13.8 nM and the greatest degradation seen (Dmax) came to 84.5%.

Regarding `CCc1cc(Nc2ncc(Br)c(Nc3ccc4nc(C)ccc4c3P(C)(C)=O)n2)c(OC)cc1N1CCC(N2CCN(C3CCN(c4cc(F)c(C5CCC(=O)NC5=O)c(F)c4)CC3)CC2)CC1` (stereo not shown) [Example 694, 3-(4-(4-(4-(1-(4-((5-bromo-4-((5-(dimethylphosphoryl)-2-methylquinolin-6-yl)amino)pyrimidin-2-yl)amino)-2-ethyl-5-methoxyphenyl)piperidin-4-yl)piperazin-1-yl)piperidin-1-yl)-2,6-difluorophenyl)piperidine-2,6-dione], in experiment [1], the half-maximal degradation concentration (DC50) is 0.986 nM and the “Dmax (%) H1975 # 28 DTC” value worked out at 68.67%. For the same compound, in experiment [2], the DC50 was determined as 16.1 nM and the Dmax worked out at 92.2%.

The term DC50 denotes the concentration at which degradation of the target reaches its halfway point. One may read the Dmax as the greatest extent of degradation seen.
